Results taken from PubChem BioAssay AID1963986 (Molecular Pharmacology Branch, DTP, NCI, 2024).

Test system: 171881-019-R-J1-PDC tumor spheroid viability
Assay: Anticancer human tumor 171881-019-R-J1-PDC patient-derived invasive breast carcinoma cell line growth inhibition [PI3K]
Details: spheroids with HUVEC and MSC; for IC50: curve of first compound; for viability, T/C: stronger effect = lower value
Summary of the method: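 Three cell types, namely tumor cells, endothelial cells and mesenchymal stem cells, formed each spheroid. Combinations with four PI3K inhibitors were screened at clinically achievable concentrations decreasing by half-log, and spheroid viability was recorded.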
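Further: spheroids exposed to compound for 7 days before viability read.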
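Wherever viability, T/C is given: 100% = DMSO vehicle-treated spheroids.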

IC50 (second compound 0.0316 µM): > 100 nM
IC50 (second compound 0.1 µM): > 100 nM
IC50 (second compound 0.316 µM): > 100 nM
IC50 (second compound 1 µM): < 0.316 nM
IC50 (second compound 3.16 µM): < 0.316 nM
IC50 (second compound 10 µM): < 0.316 nM
Compound: CC(=O)c1c(C)c2cnc(Nc3ccc(N4CCNCC4)cn3)nc2n(C2CCCC2)c1=O + Cc1nc(NC(=O)N2CCCC2C(N)=O)sc1-c1ccnc(C(C)(C)C(F)(F)F)c1
viability, T/C (second compound 0.0316 µM, first compound 0.000316 µM): 106%
viability, T/C (second compound 0.0316 µM, first compound 0.001 µM): 96.3%
viability, T/C (second compound 0.0316 µM, first compound 0.00316 µM): 91.2%
viability, T/C (second compound 0.0316 µM, first compound 0.01 µM): 101%
viability, T/C (second compound 0.0316 µM, first compound 0.0316 µM): 105%
viability, T/C (second compound 0.0316 µM, first compound 0.1 µM): 88.6%
viability, T/C (second compound 0.1 µM, first compound 0.000316 µM): 78.9%
viability, T/C (second compound 0.1 µM, first compound 0.001 µM): 79%
viability, T/C (second compound 0.1 µM, first compound 0.00316 µM): 84.8%
viability, T/C (second compound 0.1 µM, first compound 0.01 µM): 88.9%
viability, T/C (second compound 0.1 µM, first compound 0.0316 µM): 88.3%
viability, T/C (second compound 0.1 µM, first compound 0.1 µM): 82.6%
viability, T/C (second compound 0.316 µM, first compound 0.000316 µM): 57.9%
viability, T/C (second compound 0.316 µM, first compound 0.001 µM): 61.5%
viability, T/C (second compound 0.316 µM, first compound 0.00316 µM): 54.3%
viability, T/C (second compound 0.316 µM, first compound 0.01 µM): 63.2%
viability, T/C (second compound 0.316 µM, first compound 0.0316 µM): 63.1%
viability, T/C (second compound 0.316 µM, first compound 0.1 µM): 63.2%
viability, T/C (second compound 1 µM, first compound 0.000316 µM): 33%
viability, T/C (second compound 1 µM, first compound 0.001 µM): 33.7%
viability, T/C (second compound 1 µM, first compound 0.00316 µM): 37.3%
viability, T/C (second compound 1 µM, first compound 0.01 µM): 37.6%
viability, T/C (second compound 1 µM, first compound 0.0316 µM): 43.8%
viability, T/C (second compound 1 µM, first compound 0.1 µM): 38.8%
viability, T/C (second compound 3.16 µM, first compound 0.000316 µM): 14.1%
viability, T/C (second compound 3.16 µM, first compound 0.001 µM): 14.3%
viability, T/C (second compound 3.16 µM, first compound 0.00316 µM): 16.5%
viability, T/C (second compound 3.16 µM, first compound 0.01 µM): 17.3%
viability, T/C (second compound 3.16 µM, first compound 0.0316 µM): 18%
viability, T/C (second compound 3.16 µM, first compound 0.1 µM): 18.4%
viability, T/C (second compound 10 µM, first compound 0.000316 µM): 4.32%
viability, T/C (second compound 10 µM, first compound 0.001 µM): 3.84%
viability, T/C (second compound 10 µM, first compound 0.00316 µM): 4.16%
viability, T/C (second compound 10 µM, first compound 0.01 µM): 4.4%
viability, T/C (second compound 10 µM, first compound 0.0316 µM): 5.31%
viability, T/C (second compound 10 µM, first compound 0.1 µM): 4.87%
